Reference: patent US10351613B2, “Polypeptide for inhibition of tumor” (G-Bio Pharma Tech Co., Ltd., priority 2015, dated 2019)
Values after ≈ are worked out from the molar mass of the structure shown. Residues, ends and D or L forms follow the SMILES beside them.

Key:
[1] = test system: Human Umbilical Vein Endothelial Cell (HUVEC); type: cell-based; conditions: for Cell Survival (%) at a polypeptide concentration of 120 μM: 6 h; for biological activity compared with P2: inhibition of HUVEC and HepG2
Description: 20 cm umbilical cord adjacent to fetus was taken, cleaned by washing, ligated at both ends, placed into 150 ml preservation solutions for umbilical cord, and stored in a 4° C. refrigerator for digestion for 6 hours. The umbilical cord was inspected to remove the damaged portion. The umbilical vein was thoroughly cleaned by washing and then 10 ml collagenase solution was injected. Then the umbilical vein was transferred to a 37° C. incubator for digestion for 15 minutes. The umbilical cord was removed and the digested solution was recovered. The digested solution was washed by PBS and centrifuged. After centrifugation, the cells were culture by re-suspension.
(§1) Inhibition of cell growth was detected by a MTT method, which is based on the principle that succinate dehydrogenase in the mitochondria of the live cells could reduce the exogenous MTT (3-(4,5-dimethyl-2-thiazolyl)-2,5-diphenyl-tetrazolium bromide) to a […] Formazan which is a blue-violet crystal, and precipitates in the cells, while the death cells could not reduce MTT. DMSO could dissolve Formazan in the cells. Absorbance value of the solution was determined at 490/570 nm by microplate reader, which could indirectly indicate the amount of the live cells. The amount of the crystal from MTT is proportional to the amount of the cells within a certain range of cell number. The supernate from the HUVEC or tumor cells in exponential phase was removed and the cells were washed by PBS once. 1 ml 0.25% trypsin (4° C.) was added for digestion at 37° C. for 2 min. Then the supernate was added for neutralization and the cells were dispersed to form a suspension and the suspension was centrifuged at 1000 rpm for 3 min. The supernate was removed and 5 ml culture mediums were added for resuspension. Cells were inoculated in a 48-well plate by 500 ul/well at the concentration of 3×10^4/ml and then incubated under 5% CO2, 37° C. for 24 hours. The supernate was removed and a culture medium containing polypeptide (Zn^2+ in the culture medium was present at the concentration of 17.39 μmol/L) was added for further incubation for 48 hours. Supernate in each well was carefully removed. The well was gently washed by PBS once in an amount of 450 μl/well. 450 μl MTT culture mediums were added into each well for further cultivation for 4 hours. The supernate was carefully discarded. DMSO was added in an amount of 450 μl/well and then the plate was placed in a shaking bed for oscillation for 10 min in dark. 150 μl supernates were transferred to a 96-well ELISA plate and absorbance value of each well was detected at 490 nm and 570 nm by the microplate reader.

tumor cell HepG2 = type: cell-based
Description: as §1

Compound: Ac-HTHRDFQPVLHLVALNSSLSGGMRGIRGADFQCFQQARAVGLAGT-NH2 [Polypeptide P2T2S18-45]
- Cell Survival (%) at a polypeptide concentration of 120 μM [1]: 80%

Compound: Ac-HTHRDFQPVLHLVALNSSLSGGMRGIRGA-NH2 [Polypeptide P2T2S18-29]
- biological activity compared with P2 [1]: siginficalty higher than P2

Compound: CC[C@H](C)[C@H](NC(=O)CNC(=O)[C@H](CCCNC(=N)N)NC(=O)[C@H](CCSC)NC(=O)CNC(=O)CNC(=O)[C@H](CO)NC(=O)[C@H](CC(C)C)NC(=O)[C@H](CC(N)=O)NC(=O)[C@H](CO)NC(=O)[C@H](CC(N)=O)NC(=O)[C@H](CC(C)C)NC(=O)[C@H](C)NC(=O)[C@@H](NC(=O)[C@H](CC(C)C)NC(=O)[C@H](Cc1c[nH]cn1)NC(=O)[C@H](CC(C)C)NC(=O)[C@@H](NC(=O)[C@@H]1CCCN1C(=O)[C@H](CCC(N)=O)NC(=O)[C@H](Cc1ccccc1)NC(=O)[C@H](CC(=O)O)NC(=O)[C@H](CCCNC(=N)N)NC(=O)[C@H](Cc1c[nH]cn1)NC(=O)[C@H](CO)NC(=O)[C@H](Cc1c[nH]cn1)NC(C)=O)C(C)C)C(C)C)C(=O)N[C@@H](CCCNC(=N)N)C(=O)NCC(=O)N[C@@H](C)C(=O)N[C@@H](CC(=O)O)C(N)=O [Polypeptide P2N18] (Ac-HSHRDFQPVLHLVALNSNLSGGMRGIRGAD-NH2)
- IC50 (ug/ml) HUVEC [1]: 1080.8 µg/mL (≈ 328 µM)
- Cell Survival (%), 1 mg/ml of polypeptide, HUVEC [1]: 91%
- biological activity compared with P2 [1]: lower biological activity than P2
- IC50 (ug/ml) HepG2 (tumor cell HepG2): 1387.0 µg/mL (≈ 421 µM)
- Cell Survival (%), 1 mg/ml of polypeptide, HepG2 (tumor cell HepG2): 85%

Compound: CC[C@H](C)[C@H](NC(=O)CNC(=O)[C@H](CCCNC(=N)N)NC(=O)[C@H](CCSC)NC(=O)CNC(=O)CNC(=O)[C@H](CO)NC(=O)[C@H](CC(C)C)NC(=O)[C@H](CO)NC(=O)[C@H](CO)NC(=O)[C@H](CC(N)=O)NC(=O)[C@H](CC(C)C)NC(=O)[C@H](C)NC(=O)[C@@H](NC(=O)[C@H](CC(C)C)NC(=O)[C@H](Cc1c[nH]cn1)NC(=O)[C@H](CC(C)C)NC(=O)[C@@H](NC(=O)[C@@H]1CCCN1C(=O)[C@H](CCC(N)=O)NC(=O)[C@H](Cc1ccccc1)NC(=O)[C@H](CC(=O)O)NC(=O)[C@H](CCCNC(=N)N)NC(=O)[C@H](Cc1c[nH]cn1)NC(=O)[C@@H](NC(=O)[C@H](Cc1c[nH]cn1)NC(C)=O)[C@@H](C)O)C(C)C)C(C)C)C(=O)N[C@@H](CCCNC(=N)N)C(=O)NCC(=O)N[C@@H](C)C(=O)N[C@@H](CC(=O)O)C(=O)N[C@@H](Cc1ccccc1)C(=O)N[C@@H](CCC(N)=O)C(=O)N[C@@H](CS)C(=O)N[C@@H](Cc1ccccc1)C(=O)N[C@@H](CCC(N)=O)C(=O)N[C@@H](CCC(N)=O)C(=O)N[C@@H](C)C(=O)N[C@@H](CCCNC(=N)N)C(=O)N[C@@H](C)C(=O)N[C@H](C(N)=O)C(C)C [Polypeptide P2T2S18-40] (Ac-HTHRDFQPVLHLVALNSSLSGGMRGIRGADFQCFQQARAV-NH2)
- Cell Survival (%) at a polypeptide concentration of 120 μM [1]: 49%

Compound: CC[C@H](C)[C@H](NC(=O)CNC(=O)[C@H](CCCNC(=N)N)NC(=O)[C@H](CCSC)NC(=O)CNC(=O)CNC(=O)[C@H](CO)NC(=O)[C@H](CC(C)C)NC(=O)[C@@H]1CCCN1C(=O)[C@H](CO)NC(=O)[C@H](CC(N)=O)NC(=O)[C@H](CC(C)C)NC(=O)[C@H](C)NC(=O)[C@@H](NC(=O)[C@H](CC(C)C)NC(=O)[C@H](Cc1c[nH]cn1)NC(=O)[C@H](CC(C)C)NC(=O)[C@@H](NC(=O)[C@@H]1CCCN1C(=O)[C@H](CCC(N)=O)NC(=O)[C@H](Cc1ccccc1)NC(=O)[C@H](CC(=O)O)NC(=O)[C@H](CCCNC(=N)N)NC(=O)[C@H](Cc1c[nH]cn1)NC(=O)[C@@H](NC(=O)[C@H](Cc1c[nH]cn1)NC(C)=O)[C@@H](C)O)C(C)C)C(C)C)C(=O)N[C@@H](CCCNC(=N)N)C(=O)NCC(=O)N[C@@H](C)C(=O)N[C@@H](CC(=O)O)C(N)=O [Polypeptide P2T2] (Ac-HTHRDFQPVLHLVALNSPLSGGMRGIRGAD-NH2)
- IC50 (ug/ml) HUVEC [1]: 1506.1 µg/mL (≈ 457 µM)
- Cell Survival (%), 1 mg/ml of polypeptide, HUVEC [1]: 46%
- biological activity compared with P2 [1]: lower biological activity than P2
- IC50 (ug/ml) HepG2 (tumor cell HepG2): 2169.6 µg/mL (≈ 659 µM)
- Cell Survival (%), 1 mg/ml of polypeptide, HepG2 (tumor cell HepG2): 55%

Compound: CC[C@H](C)[C@H](NC(=O)CNC(=O)[C@H](CCCNC(=N)N)NC(=O)[C@H](CCSC)NC(=O)CNC(=O)CNC(=O)[C@H](CO)NC(=O)[C@H](CC(C)C)NC(=O)[C@H](CO)NC(=O)[C@H](CO)NC(=O)[C@H](CC(N)=O)NC(=O)[C@H](CC(C)C)NC(=O)[C@H](C)NC(=O)[C@@H](NC(=O)[C@H](CC(C)C)NC(=O)[C@H](Cc1c[nH]cn1)NC(=O)[C@H](CC(C)C)NC(=O)[C@@H](NC(=O)[C@@H]1CCCN1C(=O)[C@H](CCC(N)=O)NC(=O)[C@H](Cc1ccccc1)NC(=O)[C@H](CC(=O)O)NC(=O)[C@H](CCCNC(=N)N)NC(=O)[C@H](Cc1c[nH]cn1)NC(=O)[C@@H](NC(=O)[C@H](Cc1c[nH]cn1)NC(C)=O)[C@@H](C)O)C(C)C)C(C)C)C(=O)N[C@@H](CCCNC(=N)N)C(=O)NCC(=O)N[C@@H](C)C(=O)N[C@@H](CC(=O)O)C(=O)N[C@@H](Cc1ccccc1)C(=O)N[C@@H](CCC(N)=O)C(=O)N[C@@H](CS)C(=O)N[C@@H](Cc1ccccc1)C(=O)N[C@@H](CCC(N)=O)C(N)=O [Polypeptide P2T2S18-35] (Ac-HTHRDFQPVLHLVALNSSLSGGMRGIRGADFQCFQ-NH2)
- Cell Survival (%) at a polypeptide concentration of 120 μM [1]: 15%

Compound: CSCC[C@H](NC(=O)CNC(=O)CNC(=O)[C@H](CO)NC(=O)[C@H](CC(C)C)NC(=O)[C@H](CO)NC(=O)[C@H](CO)NC(=O)[C@H](CC(N)=O)NC(=O)[C@H](CC(C)C)NC(=O)[C@H](C)NC(=O)[C@@H](NC(=O)[C@H](CC(C)C)NC(=O)[C@H](Cc1c[nH]cn1)NC(=O)[C@H](CC(C)C)NC(=O)[C@@H](NC(=O)[C@@H]1CCCN1C(=O)[C@H](CCC(N)=O)NC(=O)[C@H](Cc1ccccc1)NC(=O)[C@H](CC(=O)O)NC(=O)[C@H](CCCNC(=N)N)NC(=O)[C@H](Cc1c[nH]cn1)NC(=O)[C@@H](NC(=O)[C@H](Cc1c[nH]cn1)NC(C)=O)[C@@H](C)O)C(C)C)C(C)C)C(=O)N[C@@H](CCCNC(=N)N)C(=O)NCC(N)=O [Polypeptide P2T2S18-25] (Ac-HTHRDFQPVLHLVALNSSLSGGMRG-NH2)
- Cell Survival (%) at a polypeptide concentration of 120 μM [1]: 31%

Compound: CC(=O)N[C@@H](Cc1c[nH]cn1)C(=O)N[C@H](C(=O)N[C@@H](Cc1c[nH]cn1)C(=O)N[C@@H](CCCNC(=N)N)C(=O)N[C@@H](CC(=O)O)C(=O)N[C@@H](Cc1ccccc1)C(=O)N[C@@H](CCC(N)=O)C(=O)N1CCC[C@H]1C(=O)N[C@H](C(=O)N[C@@H](CC(C)C)C(=O)N[C@@H](Cc1c[nH]cn1)C(=O)N[C@@H](CC(C)C)C(=O)N[C@H](C(=O)N[C@@H](C)C(=O)N[C@@H](CC(C)C)C(=O)N[C@@H](CC(N)=O)C(=O)N[C@@H](CO)C(=O)N[C@@H](CO)C(=O)N[C@@H](CC(C)C)C(=O)N[C@@H](CO)C(N)=O)C(C)C)C(C)C)[C@@H](C)O [Polypeptide P2T2S18-20] (Ac-HTHRDFQPVLHLVALNSSLS-NH2)
- Cell Survival (%) at a polypeptide concentration of 120 μM [1]: 52%

Compound: CC(=O)N[C@@H](Cc1c[nH]cn1)C(=O)N[C@H](C(=O)N[C@@H](Cc1c[nH]cn1)C(=O)N[C@@H](CCCNC(=N)N)C(=O)N[C@@H](CC(=O)O)C(=O)N[C@@H](Cc1ccccc1)C(=O)N[C@@H](CCC(N)=O)C(=O)N1CCC[C@H]1C(=O)N[C@H](C(=O)N[C@@H](CC(C)C)C(=O)N[C@@H](Cc1c[nH]cn1)C(=O)N[C@@H](CC(C)C)C(=O)N[C@H](C(=O)N[C@@H](C)C(=O)N[C@@H](CC(C)C)C(N)=O)C(C)C)C(C)C)[C@@H](C)O [Polypeptide P2T2-15, Ac-HTHRDFQPVLHLVAL-NH2] (Ac-HTHRDFQPVLHLVAL-NH2)
- Cell Survival (%) at a polypeptide concentration of 120 μM [1]: 95%
